Results taken from EPA's ToxValDB 9.5 (doi:10.2903/j.efsa.2014.3787).

Legend:
[1] = test system: Tagia sp.; settings: for LC50: acute, duration: 14 days, mortality; for NOEC: chronic/long-term, duration: 8 weeks
[2] = test system: Hypoaspis aculeifer; settings: acute, duration: 14 days
[3] = test system: Folsomia candida; settings: chronic/long-term, duration: 28 days
[4] = test system: Lepomis macrochirus; settings: acute; duration: 96 hours; mortality
[5] = test system: Rattus norvegicus
[6] = test system: Apis mellifera; settings: acute, duration: 72 hours, mortality
[7] = test system: Oncorhynchus mykiss
[8] = test system: Oryctolagus sp.
[9] = test system: Daphnia magna; settings: chronic/long-term; duration: 21 days; mobility
[10] = test system: Colinus virginianus; settings: acute, oral
[11] = test system: Coturnix japonica; settings: reproduction developmental; duration: 6 weeks
[12] = test system: Aphidius rhopalosiphi; assay: LR50; higher = less toxic; settings: acute; duration: 48 hours; mortality
[13] = test system: Typhlodromus pyri; assay: LR50; higher = less toxic; settings: chronic/long-term; duration: 7 days; mortality

Q: For `NS(=O)(=O)c1ccccc1C(=O)O` [2-Sulfamoylbenzoic acid], which LC50 [1] is on record?
A: > 1000 mg/kg

Q: What about the NOEC [1] of the same compound?
A: 1000 mg/kg

Q: What does the source list for `CCOc1nc(NC)nc(NC(N)=O)n1` [Ethametsulfuron methyl metabolite (IN-B9161)]?
A: NOEC [2]: 76.9 mg/kg; NOEC [3]: 76.9 mg/kg

Q: What does the source list for `CCOc1nc(NC)nc(NC(=O)NS(=O)(=O)c2ccccc2C(=O)OC)n1` [Ethametsulfuron-methyl]?
A: LC50 [4]: > 123 µg/mL; LD50 ([5]; acute, oral, mortality): > 5000 mg/kg-day; NOAEL ([5]; chronic, duration: 2 years, clinical chemistry): 21 mg/kg-day; LD50 ([6]; dermal): 4.62 µg/piece; LD50 ([6]; oral, unspecified): 40.8 µg/piece; NOEC ([2]; reproduction): 100 mg/kg; LC50 ([7]; acute, duration: 96 hours, mortality): > 126 µg/mL; NOEC ([7]; chronic/long-term, duration: 87 days, growth): 5.4 mg/L; LOAEL ([8]; developmental, development): 250 mg/kg-day; NOAEL ([8]; reproduction developmental, organ weight): 250 mg/kg-day; NOEC [9]: 4.7 mg/L; LD50 ([10]; duration: 5 days, diet): > 1160 mg/kg-day; LD50 [10]: 2250 mg/kg-day; NOEC [11]: 229 mg/kg-day; LC50 [1]: 116 mg/kg; NOEC ([1]; reproduction): 27.3 mg/kg; NOEC ([3]; reproduction): 100 mg/kg; LR50 [12]: > 18.8 g/ha; LR50 [13]: > 11.4 g/ha

Q: How did the LC50 [1] turn out when `CCOc1nc(N)nc(NC(=O)NS(=O)(=O)c2ccccc2C(=O)OC)n1` [N-Demethyl ethametsulfuronmethyl] was run?
A: > 100 mg/kg

Q: What about the NOEC [3] of the same compound?
A: 50 mg/kg
